The values below come from patent US20230026163A1, “ANTICANCER COMPOUND AND MEDICAL USE THEREOF” (ASCENTAWITS PHARMACEUTICALS, LTD., priority 2019, published 2023).

SMILES strings stand for the structures.

Data set [1] deals with H460 non-small cell lung cancer. Nature of the data set: Cytotoxicity test of human tumor cell line in vitro (CTG, 72 hours). Type of data set: cell-based. The settings on record: for IC50: Homo sapiens, NCI-H460, H460, 72 hours exposure; for Anticancer activity compared to the compound of control 2: H460. The procedure: IC50 values were obtained by the following methods. The cancer cells were exposed to various concentrations of compounds for 72 hours. Following by washing steps, fresh medium was added to allow the growth of the cancer cells. The cancer cells were stained to obtain cell viability. Then, comparisons were made with the medium-only control.
Specifically, the exponentially growing cells were seeded in 96-well plates at a density of 2×10^3 cells/well, and 100 μL/well. The cells were incubated for 24 hours at 37° C., in 5% CO2, in 95% air, and 100% relative humidity. Next, 99 μL of culture medium was added. The compounds were dissolved in 100% DMSO at 200 times the desired final test concentration. Upon addition of compounds, the compounds were further diluted to 4 times the desired final concentration with a complete medium. Aliquots of 1 μL of compounds at specific concentration were added to the micro-wells containing 199 μL of medium to obtain the final compound concentrations as reported. After the compounds were added, the plates were incubated for an addition 72 hours at 37° C., in 5% CO2, in 95% air, and 100% relative humidity.
The plates to be test containing the cells were equilibrated at room temperature for 30 minutes, and 100 μL of medium per well was discarded. 100 μL of CTG reagent (CelltiterGlo Kit) was added to each well. The plates were placed in a fast-shaker to shake for 2 minutes, and placed at room temperature for 30 minutes in the dark. Chemoluminescence signal values were read with Envision instrument.

The next data set deals with P-glycoprotein (Homo sapiens, UniProt P08183). Briefly: in vitro. The following applies: for Papp A→B at 2 h / Papp B→A at 2 h / recovery at 2 h: dog; for Papp A→B at 2 h / Papp B→A at 2 h: MDCK-MDR1; for P-glycoprotein substrate (experimental conclusion): with vs without Verapamil. The procedure: MDCKII-MDR1 cells were incubated in cell culture flasks. The incubator was set at 37° C., 5% CO2, and a guaranteed relative humidity of 95%. When the cells reached 70 to 90% confluence, the cells may be seeded to transwells.
Sequence of P-glycoprotein (P08183 whole entry): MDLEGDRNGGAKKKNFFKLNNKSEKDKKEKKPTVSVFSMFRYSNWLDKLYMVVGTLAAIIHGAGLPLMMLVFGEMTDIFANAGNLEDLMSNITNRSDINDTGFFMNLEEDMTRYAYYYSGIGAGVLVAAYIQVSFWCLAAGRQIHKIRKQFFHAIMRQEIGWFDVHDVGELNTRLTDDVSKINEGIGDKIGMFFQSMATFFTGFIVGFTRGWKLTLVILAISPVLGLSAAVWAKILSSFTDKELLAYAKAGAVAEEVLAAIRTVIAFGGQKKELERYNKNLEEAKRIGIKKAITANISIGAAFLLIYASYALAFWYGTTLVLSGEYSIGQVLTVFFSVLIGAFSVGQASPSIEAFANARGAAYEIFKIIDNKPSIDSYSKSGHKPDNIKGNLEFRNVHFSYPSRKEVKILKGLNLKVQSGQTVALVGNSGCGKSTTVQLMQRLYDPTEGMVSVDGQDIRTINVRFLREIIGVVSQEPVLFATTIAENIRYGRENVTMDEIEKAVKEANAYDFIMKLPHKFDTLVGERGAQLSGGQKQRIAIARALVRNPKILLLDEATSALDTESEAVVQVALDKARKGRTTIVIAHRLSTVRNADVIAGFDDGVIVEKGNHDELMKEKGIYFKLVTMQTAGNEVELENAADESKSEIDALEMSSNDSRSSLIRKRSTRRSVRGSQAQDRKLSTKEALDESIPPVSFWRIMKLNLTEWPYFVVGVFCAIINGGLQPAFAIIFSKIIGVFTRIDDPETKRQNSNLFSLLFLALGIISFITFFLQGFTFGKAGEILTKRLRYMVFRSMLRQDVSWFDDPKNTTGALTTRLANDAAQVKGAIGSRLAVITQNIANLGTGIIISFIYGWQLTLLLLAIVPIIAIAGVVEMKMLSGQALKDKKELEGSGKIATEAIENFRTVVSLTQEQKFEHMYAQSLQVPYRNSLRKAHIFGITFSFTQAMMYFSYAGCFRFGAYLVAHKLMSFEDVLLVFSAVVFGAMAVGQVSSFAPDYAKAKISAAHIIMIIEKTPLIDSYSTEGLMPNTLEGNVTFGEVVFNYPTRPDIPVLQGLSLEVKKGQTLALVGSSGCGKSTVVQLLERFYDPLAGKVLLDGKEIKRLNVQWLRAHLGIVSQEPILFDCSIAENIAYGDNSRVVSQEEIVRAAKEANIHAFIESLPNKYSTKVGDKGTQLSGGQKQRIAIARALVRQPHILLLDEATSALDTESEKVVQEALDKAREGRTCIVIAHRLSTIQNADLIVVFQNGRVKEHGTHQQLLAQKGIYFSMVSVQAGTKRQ
50 μL of the cell suspensions were added to the apical chambers of each well of the 96-well transwells at a final seeding density of 5.45×10^5 cells/cm^2.
MDCKII-MDR1 cells may be fully confluent and differentiated after 4 to 8 days of incubation. At this time, the cells may be applied to penetration test. The monolayer membrane resistance was measured with a resistance meter (Millipore), and the resistance per well was recorded. After the test, the transwells were returned to the incubator.
The transwells with MDCKII-MDR1 cells were taken from the incubator. The cell monolayers were rinsed twice with buffer and incubated at 37° C. for 30 minutes.
The rate of the compounds from an apical end to a basolateral end was determined. 75 μL of the buffer containing the test sample was added to each well of the apical chambers (apical end), and 235 μL of the buffer was added to each well of the basolateral chambers (basolateral end).
The rate of the compounds transporting from the basolateral end to the apical end was determined. 75 μL of the buffer was added to the apical chambers (apical end), and 235 μL of the buffer containing the test sample was added to the basolateral chamber (basolateral end).
After the apical chambers and the basolateral chambers were combined respectively, the transwells were incubated at 37° C. for 2 hours.
After incubation, 50 μL of the sample from each well of the apical chambers and the basolateral chambers of the transwells was transferred to new sample tubes respectively. 200 μL of acetonitrile (100 nM of Alprazolam, 200 nM of Labetalol, 200 nM of caffeine, and 2 μM of Ketoprofen) as an internal standard was added to the sample tubes, vortexed for 10 minutes, and centrifuged at 3220 g for 30 minutes. 100 μL of the supernatant was taken and diluted with an equal volume of water for LC-MS/MS analysis. Each sample was incubated in triplicate.
Peak-areas were calculated from ion chromatography results. The apparent permeability coefficient (Papp, unit: cm/s×10-6) of the compounds was calculated by the following formula.
In the formula, VA was the volume of the solution at the acceptor end (Ap→B1 was 0.235 mL, and B1→Ap was 0.075 mL), Area was the membrane area (0.143 cm^2) of 96-well transwell, time was the incubation time (unit: s), [drug]acceptor referred to the drug concentration of the acceptor end after incubation, and [drug]initial,donor referred to the initial concentration of the donor end before incubation.
Efflux ratio was calculated with the following formula.
In the formula, Papp(B_A) was the apparent permeability coefficient from the basolateral end to the apical end, and Papp(A-B) was the apparent permeability coefficient from the apical end to the basolateral end.
The recovery rate was calculated with the following formula.
In the formula, VA was the solution volume of the acceptor end (unit: mL), VD was the solution volume of the donor end (unit: mL), [drug]acceptor referred to the drug concentration of the acceptor end after incubation, and [drug]initial,donor referred to the initial concentration of the donor end before incubation.

The mark [2] stands for this setting: MDCK-MDR1, Recovery (%) AP-BL, Verapamil 0 μM.
The mark [3] stands for this setting: MDCK-MDR1, Recovery (%) AP-BL, Verapamil 100 μM.
The mark [4] stands for this setting: MDCK-MDR1, Recovery (%) BL-AP, Verapamil 0 μM.
[5] abbreviates: MDCK-MDR1, Recovery (%) BL-AP, Verapamil 100 μM.

The molecule `O=[N+]([O-])c1cccc2ccc(C(OP(=O)(N3CC3)N3CC3)C(F)(F)F)cc12` (stereo not drawn) [Compound 08] came in with a concentration for half-maximal inhibition (IC50) in data set [1] of 3.84 µM.
`O=[N+]([O-])c1ccc(C(OP(=O)(N2CC2)N2CC2)C(F)(F)F)c2ccncc12` (stereo not drawn) [Compound 18] registered an IC50 in data set [1] of 0.00788 µM.
In the case of `O=[N+]([O-])c1cccc2cc(COP(=O)(N3CC3)N3CC3)ccc12` [Compound 24], the IC50 in data set [1] was 0.478 µM.
The molecule `CC(OP(=O)(N1CC1)N1CC1)c1ccc([N+](=O)[O-])c2cnccc12` (stereo not drawn) [Compound 14] showed a 50% inhibitory concentration (IC50) in data set [1] of 0.00382 µM. The molecule further displayed an apparent permeability from apical to basolateral (Papp A→B) at 2 h on P-glycoprotein of 12.9 ×10⁻⁶ cm/s. On P-glycoprotein, this molecule yielded an apparent permeability from basolateral to apical (Papp B→A) at 2 h of 26.3 ×10⁻⁶ cm/s. For the same molecule, the recovery at 2 h at P-glycoprotein (setting [2]) was 91.1%; at P-glycoprotein (setting [3]), 80.8%; on P-glycoprotein (setting [4]), 104%; on P-glycoprotein (setting [5]), 90.8%. For the same molecule, the “P-glycoprotein substrate (experimental conclusion)” value on P-glycoprotein is reported as “not P-glycoprotein substrates”.
For the molecule `COCCc1ccc(OCC(O)CNC(C)C)cc1` (stereo not drawn) [Metoprolol, reference compound], at P-glycoprotein, the Papp A→B at 2 h came out at 26 ×10⁻⁶ cm/s and the Papp B→A at 2 h is 18.9 ×10⁻⁶ cm/s.
In the case of `O=[N+]([O-])c1ccc(COP(=O)(N2CC2)N2CC2)c2ncccc12` [Compound 20], in data set [1], the half-maximal inhibitory concentration (IC50) stood at 0.0415 µM. In addition, the Papp A→B at 2 h at P-glycoprotein turned out to be 33.7 ×10⁻⁶ cm/s. The molecule also showed an apparent permeability from basolateral to apical (Papp B→A) at 2 h on P-glycoprotein of 21.8 ×10⁻⁶ cm/s. Moreover, the recovery at 2 h at P-glycoprotein (setting [2]) is 92.7%; on P-glycoprotein (setting [3]), 87.6%; at P-glycoprotein (setting [4]), 96.3%; at P-glycoprotein (setting [5]) it was 96.2%. In addition, the “P-glycoprotein substrate (experimental conclusion)” value on P-glycoprotein is “not P-glycoprotein substrates”.
With `O=[N+]([O-])c1c(C(OP(=O)(N2CC2)N2CC2)C(F)(F)F)ccc2ccccc12` (stereo not drawn) [Compound 05], in data set [1], the “Anticancer activity compared to the compound of control 2” value is reported as “obviously worse” and the concentration for half-maximal inhibition (IC50) was determined as 9.02 µM.
In the case of `CC(OP(=O)(N1CC1)N1CC1)c1cccc2c([N+](=O)[O-])cccc12` (stereo not drawn) [Compound 10], in data set [1], the IC50 is 0.692 µM.
Regarding `O=[N+]([O-])c1ccc(COP(=O)(N2CC2)N2CC2)c2cccnc12` [Compound 22], in data set [1], the IC50 was 0.2 µM.
`CC(OP(=O)(N1CC1)N1CC1)c1ccc([N+](=O)[O-])c2ccncc12` (stereo not drawn) [Compound 13]: the IC50 in data set [1] is 0.0129 µM.
Same read-out and setting: the figure for `O=[N+]([O-])c1cccc2c(C(OP(=O)(N3CC3)N3CC3)C(F)(F)F)cccc12` (stereo not drawn) [Compound 11] is 7.65 µM.
Same read-out and setting: next, `O=[N+]([O-])c1ccc(COP(=O)(N2CC2)N2CC2)c2ccncc12` [Compound 21]: 0.00717 µM.
Take `CC(OP(=O)(N1CC1)N1CC1)c1ccc2ccccc2c1[N+](=O)[O-]` (stereo not drawn) [Compound 04]: in data set [1], the “Anticancer activity compared to the compound of control 2” value is given as “obviously worse” and inhibition was half-maximal at 9.28 µM (IC50).
`O=[N+]([O-])c1cc(COP(=O)(N2CC2)N2CC2)cc2ccccc12` [Compound 25]: the half-maximal inhibitory concentration (IC50) in data set [1] was determined as 0.106 µM.
Molecule `O=[N+]([O-])c1cccc2c(COP(=O)(N3CC3)N3CC3)cccc12` [Compound 09] returned an IC50 in data set [1] of 1.65 µM.
`CC(OP(=O)(N1CC1)N1CC1)c1ccc([N+](=O)[O-])c2cccnc12` (stereo not drawn) [Compound 12] came in with an IC50 in data set [1] of 0.0352 µM.
Same read-out and setting: next, `O=[N+]([O-])c1cccc2ccc(COP(=O)(N3CC3)N3CC3)cc12` [Compound 06]: 0.172 µM; `O=[N+]([O-])c1ccc(C(OP(=O)(N2CC2)N2CC2)C(F)(F)F)c2cccnc12` (stereo not drawn) [Compound 19]: 0.311 µM; `O=[N+]([O-])c1ccc(COP(=O)(N2CC2)N2CC2)c2ccccc12` [Compound 02]: 0.755 µM.
As for `CC(OP(=O)(N1CC1)N1CC1)c1ccc2cccc([N+](=O)[O-])c2c1` (stereo not drawn) [Compound 07], in data set [1], the IC50 was determined as 0.168 µM.
The molecule `O=[N+]([O-])c1ccc(C(OP(=O)(N2CC2)N2CC2)C(F)(F)F)c2ncccc12` (stereo not drawn) [Compound 16] returned an IC50 in data set [1] of 0.0349 µM.
Consider `CC(OP(=O)(N1CC1)N1CC1)c1ccc([N+](=O)[O-])c2ncccc12` (stereo not drawn) [Compound 15], for which the IC50 in data set [1] was 0.145 µM.

Usually IC50 stands for the midpoint of a concentration-inhibition curve. A higher IC50 goes with weaker potency. What is called Papp A→B is how fast a substance crosses the layer from the apical side. As usually defined, the Papp B→A is the apparent permeability from the basolateral to the apical side of a cell layer.
